Values joined by “and” are separate entries in the source; they are usually repeats but may differ in a detail not shown here. Identical values can stand only once. Like-named read-outs stand apart in the source and are kept apart here.

The test system of this assay is C. difficile. The class given is cell-based. Conditions: 37° C. 24 h; for concentration added at which a mass of bacteria and the surrounding medium exhibited yellow color / concentration added at which a mass of bacteria exhibited yellow color / concentration added at which a mass of bacteria was found: added to medium of Table 1.

Turning to `O[C@H](CS)[C@H](O)CS` (racemic) [dithiothreitol], the “concentration added at which a mass of bacteria and the surrounding medium exhibited yellow color” value was 0.6 g/L and 0.9 g/L; the “concentration added at which a mass of bacteria exhibited yellow color” value was 0.16 to 1.2 g/L; the “concentration added at which a mass of bacteria was found” value lay in the range of 0.075 to 1.5 g/L. Where the note is “dithiothreitol added 0.075 g/L”, this molecule registered a Yellow coloration degree of 1. The same molecule registered a Yellow coloration degree (dithiothreitol added 0.16 g/L) of 2. For the setting “dithiothreitol added 0.32 g/L”, the Yellow coloration degree is 2. Further, the Yellow coloration degree (dithiothreitol added 0.60 g/L) was 3. Also, the Yellow coloration degree (dithiothreitol added 0.90 g/L) was 3. The molecule also came in with a Yellow coloration degree (dithiothreitol added 1.2 g/L) of 2. This molecule also returned a Yellow coloration degree (dithiothreitol added 1.5 g/L) of 1. In addition, the Yellow coloration degree (dithiothreitol added 1.8 g/L) is reported as 0.

For the molecule `O=C1O[C@H]([C@@H](O)CO)C(O)=C1O` [ascorbic acid], the “concentration added at which a mass of bacteria and the surrounding medium exhibited yellow color” value lay in the range of 0.32 to 1.8 g/L; the “concentration added at which a mass of bacteria exhibited yellow color” value was 0.16 to 2.7 g/L; the “concentration added at which a mass of bacteria was found” value fell in the range of 0.075 to 3.6 g/L. This molecule also gave a Yellow coloration degree (ascorbic acid added 0.075 g/L) of 1. In addition, the Yellow coloration degree (ascorbic acid added 0.16 g/L) came out at 2. For the setting “ascorbic acid added 0.32 g/L”, this molecule came in with a Yellow coloration degree of 3. The molecule also gave a Yellow coloration degree (ascorbic acid added 0.64 g/L) of 3. Also, the Yellow coloration degree (ascorbic acid added 1.8 g/L) is 3. Besides, the Yellow coloration degree (ascorbic acid added 2.7 g/L) was 2. This molecule gave a Yellow coloration degree (ascorbic acid added 3.6 g/L) of 1. The molecule also yielded a Yellow coloration degree (ascorbic acid added 4.5 g/L) of 0.

These data come from patent publication US10900014B2, “Long-term storage medium for culturing obligate anaerobic bacteria or microaerobic bacteria under aerobic environment, and method of detecting obligate anaerobic bacteria or microaerobic bacteria using said medium” (Kanto Kagaku Kabushiki Kaisha, priority 2015, dated 2021).
